Measured values reported in patent publication US20130157261A1, “Compositions and Methods for Quantitative Histology, Calibration of Images in Fluorescence Microscopy, and ddTUNEL Analyses” (The Methodist Hospital Research Institute, priority 2011, published 2013).

What was measured:
U87 cells [1] = test: in situ ligation of blunt-ended and 3′-T-OH overhanging oligonucleotide probes (DNA breaks); type: cell-based, human; conditions: for number of 3′-T-OH overhang ends / overhanging cuts / number of blunt-ended breaks: 24 hrs after treatment at LD50 concentration; for blebbing of treated cells: microscopy
Protocol: U87, human glioblastoma, cells were obtained from the American TypeCulture Collection (ATCC) Manassas, Va. and grown as recommended in DMEM with penicillin/streptomycin and 10% FBS. Following 3 weeks of growth and splitting cells were plated into slide chambers (Lab-Tek Nalge Nunc International, Rochester, N.Y., USA) at 2×10^5 cells per mL, and were allowed to grow thereon for 24 hrs until confluence was reached.
Twenty-four hrs after treatment, all cells were fixed with 4% PFA for one hr and washed 3× in 0.1 M PBS, incubated in 0.1% Triton-X100® for 6 min and then washed in 0.1 M PBS buffer. Each slide was assayed for double-strand DNA blunt-ended and overhanging 3′-OH ends, and counterstained for DNA with YO-PRO-1®.
The 3′-OH T specific overhang and blunt-ended DNA probes, shown in FIG. 2A and FIG. 2B, were ligated to the known oligonucleotide standard phantoms the amine apex oligoneuleotides, or alternatively, to fixed permeabilized U87 cells. The sections were pre-incubated in the ligation buffer without the probe (66 mM Tris-HCl, pH 7.5, 5 mM MgCl2, 0.1 mM dithioerythritol, 1 mM ATP, and 15% polyethylene glycol-8000) to ensure even saturation. The buffer was aspirated, and the full ligation mix containing the ligation buffer with probe, 35 μg/μL, and 0.5 U/μL T4 DNA ligase (New England BioLabs; Ipswich, Mass., USA) was applied to the sections, which were then incubated in a humidified box overnight.
The 3′-OH T-specific overhanging- and blunt-ended DNA probes shown in FIG. 11B were ligated to oligonucleotide standard phantoms, mammary gland or to fixed, permeabilized U87 cells. The sections were pre-incubated with ligation buffer in the absence of the probe (66 mM-Tris HCl, pH 7.5, 5 mM MgCl2, 0.1 mM dithioerythritol, 1 mM ATP, and 15% polyethylene glycol-8000) to ensure even saturation. The buffer was aspirated and the full ligation mix [ligation buffer+probe (35 μg/μL) and T4 DNA ligase (0.5 U/μL)] was applied to the sections, which were then incubated in a humidified box overnight. Controls consisted of probe-ligated phantoms, which were then incubated with either EcoRI or BamHI, in the appropriate buffer for 4 hrs, washed, cover-slipped using Fluoromount-G™ (SouthernBiotech), and then sealed with nail varnish.
(§1) Human glioblastoma cells (U87) (American Type Culture Collection, Manassas, Va., USA), and grown as recommended in DMEM with penicillin/streptomycin and 10% FBS. Following 3-weeks' growth and splitting, 5 mL of cells were plated into microscope slide chambers (Lab-Tek) at […], and were allowed to grow in the slide chambers for 24 hrs, until they became confluent. […] 24 hrs after treatment, all cells were fixed with 2% PFA for 1 hr, washed 3× in 0.1 M PBS, then incubated in 0.1% Triton X-100® for 6 min and finally washed in 0.1 M PBS buffer. Each slide was assayed for double-strand blunt (red) and overhanging (blue) DNA damage, and counterstained for DNA with YO-PRO-1® (green) or for γH2A.X with an FITC-labeled IgG antibody (green).

U87 cells [2] = test: ddTUNEL assay (3′OH DNA ends); type: cell-based, human; conditions: for ddTUNEL: approximate concentration of the probe in the cells: U87 cells following treatment, nominal path length of 6 μm, control 3.7
Protocol: ddTUNEL reaction buffer was prepared fresh daily by diluting a previously-frozen) stock solution of ddTUNEL buffer 1:5, and solution of cobalt chloride 1:25.
Stock reaction buffer, 5×: 125 mM Tris-HCl, 1 M sodium cacodylate, 1.25 mg/mL BSA, pH 6.6. Stock reaction CoCl2 solution, 25×: 25 mM cobalt chloride.
1. Wash samples twice in ddTUNEL reaction buffer for 10 min each.
2. Incubate sections in ddTUNEL reaction solution for 1-2 h at 37-40° C. in humidified chamber or overnight at room temperature.
5. Incubate with fluorescently labeled avidin or streptavidin ([…]) for 30 min.
(§2) U87 human glioblastoma cells were grown in DMEM with penicillin/streptomycin and 10% fetal bovine serum (FBS) (Invitrogen). Following 3-weeks' growth, 5 mL of cells were plated into slide chambers (Lab-Tek, Nalge Nunc International, Rochester, N.Y., USA) at 2×10^5 cells per mL, and grown for 24 hrs at 37° C. in a 5% CO2 incubator. […] 24-hrs' later, cells were fixed with 2% PFA, then permeabilized in 0.1% Triton X-100® as described above.

U87 cells [3] = test: Fpg-ddTUNEL assay (oxidized/acylated DNA bases), with or without NaBH4 reduction; type: cell-based, human; conditions: for Fpg-ddTUNEL: approximate concentration of the probe in the cells: U87 cells following treatment, nominal path length of 6 μm, control 0.9; for effect of NaBH4 reduction on the Fpg-ddTUNEL signal / oxo-base levels: ethanolic NaBH4
Protocol: Each sample was incubated in 25 mM sodium borohydride in 70% ethanol for 30 min. The sample was then washed twice in 0.1 M PBS. Typically, a slide box was employed, and it was half-filled with reducing solution so that half the sample(s) on the slide were reduced.
The sample was washed twice in 10 mM HEPES, 10 mM NaCl, 2 mM EDTA and 0.1% BSA and then ≈50 μL of the same buffer containing 100 U/mL of Fpg was applied to each of the sections, which were then incubated in a humidified box for ≧4 hr. The sample was washed twice in 100 mM PBS, and then twice in NEBuffer3. Approximately 50 μL of the same buffer containing 100 U/mL of CIAP was then applied to each section, and incubated for ≧2 hrs.
1. After completing both ddTUNEL and CIAP-ddTUNEL, each sample is washed twice in Fpg-buffer (Affymetrix) for 10 min.
2. Samples are then incubated in 100 U/mL Fpg (Affymetrix) in Fpg Buffer for 2 hr at 37° C. (or, alternatively, overnight at room temperature).
Following ddTUNEL and CIAP-ddTUNEL, capping 3′OH/3′PO4 ends, samples were washed twice in 10 mM HEPES, 10 mM NaCl, 2 mM EDTA and 0.1% BSA and then ≈50 μL of the same buffer containing 100 U/mL of Fpg was applied to each of the sections, and then incubated in a humidified box ≧4 hrs. Each sample was washed twice in 100 mM PBS, twice in NEBuffer3 and ≈50 μL of the same buffer containing 100 U/mL of CIAP was applied to each section and incubated for ≧2 hr; samples then underwent a third round of ddTUNEL.
as §2

U87 cells [4] = test: LD50 of stressors on the cells over a 24-hr incubation; type: cell-based, human
[5] = tested on: normal human astrocytes (NHA); conditions: ethylmercury treatment (FIG. 21)
Protocol: Normal human astrocytes (NHA) were obtained from Lonza (Walkersville, Md., USA) and grown subject to their recommendations. NHA were grown to confluency in Astrocyte Cell Basal Medium supplemented with 3% FBS, Glutamine, Insulin, fhEGF, GA-1000 and ascorbic acid in 16-well Lab-Tek slide chambers (Nalge Nunc, Rochester, N.Y., USA), in a total volume of 240 μL.
NHA were incubated for 1 hour with probes before fixation. Fixation in buffered paraformaldehyde (PFA) was performed in two stages. Firstly, a 50-4 aliquot of ice-cold 8% PFA was added to each well, then gently aspirated and the wells were twice washed with ice-cold 2% PFA and then allowed to completely fix at 4° C. After fixation, cells were washed twice in 1×PBS (Thermo Fisher Scientific, Rockford, Ill., USA). The tanks were then removed from the slides, the well area covered with Fluoromount-G (SouthernBiotech, Ill., USA), cover-slipped and sealed with nail varnish.
3% FCS was present in the NHA medium throughout the time-course. To generate the time-course shown in FIG. 17A and FIG. 17B, NHA were exposed to Mitotracker, H2DCFAM and Hoechst at t=0.

U87 cells [6] = test: γ-H2A.X histone labelling with FITC-labeled antibody; type: cell-based, human; conditions: 24 hrs
Protocol: FITC-labeled Anti-H2A.X histone monoclonal antibody (BioLegend, San Diego, Calif.) was used as an internal control for DNA breaks, at a 1/50 dilution after the samples were blocked with 10% horse serum.
as §1
After incubation with 10% horse sera and washing, Ser139-phosphorylated H2A.X histone was imaged using an FITC-labeled monoclonal antibody (Biolegend, San Diego, Calif., USA) (1:500) following the methods of the manufacturer. Immune cell marker CD3ε was imaged using an FITC-labeled monoclonal antibody (Santa Cruz Biotechnologies, Santa Cruz, Calif.) (also at 1:500) as recommended by the manufacturer.

## Cn1nnc2c(C(N)=O)ncn2c1=O [Temozolomide]
U87 cells [1]
  number of 3′-T-OH overhang ends / overhanging cuts: ~350 per million base pairs
  number of blunt-ended breaks: approximately 900 per million base pairs
U87 cells [1]; 24 hrs, Example 2
  difference in levels of blunt-end breaks vs control cells: greater than 30 ×
U87 cells [2]
  ddTUNEL: approximate concentration of the probe in the cells: 8.7 µM
U87 cells [3]
  Fpg-ddTUNEL: approximate concentration of the probe in the cells: 13.7 µM
U87 cells [4]
  LD50: 25 µM

## CCc1c2c(nc3ccc(OC(=O)N4CCC(N5CCCCC5)CC4)cc13)-c1cc3c(c(=O)n1C2)COC(=O)[C@]3(O)CC [Irinotecan, (S)-4,11-diethyl-3,4,12,14-tetrahydro-4-hydroxy-3,14-dioxo1H-pyrano[3′,4′:6,7]-indolizino[1,2-b]quinolin-9-yl-[1,4′bipiperidine]-1′-carboxylate]
U87 cells [1]
  number of 3′-T-OH overhang ends / overhanging cuts: 119 per million base pairs
  number of blunt-ended breaks: 285 per million base pairs
U87 cells [1]; 24 hrs, Example 2
  difference in overhang breaks vs control cells: greater than 50 ×
U87 cells [1]; vs control cells (FIG. 7)
  increase in number of blunt-ended breaks: more than 50%
  increase in number of overhanging breaks: ~3 fold
U87 cells [2]
  ddTUNEL: approximate concentration of the probe in the cells: 7.4 µM
U87 cells [3]
  Fpg-ddTUNEL: approximate concentration of the probe in the cells: 1.7 µM
U87 cells [3]; U87 cells
  effect of NaBH4 reduction on the Fpg-ddTUNEL signal / oxo-base levels: unaltered by reduction

## C[CH2][Hg] [ethylmercury]
[5]
  formation of dichlorofluorescein from H2DCF-AM greater than superoxide/carbonyl formation: approximately 20%

## OO [H2O2, hydrogen peroxide]
U87 cells [1]; 24 hrs
  blebbing of treated cells: formation of blebs
U87 cells [2]
  ddTUNEL: approximate concentration of the probe in the cells: 9.4 µM
U87 cells [3]
  Fpg-ddTUNEL: approximate concentration of the probe in the cells: 4.5 µM
U87 cells [3]; U87 cells
  effect of NaBH4 reduction on the Fpg-ddTUNEL signal / oxo-base levels: redox sensitive
U87 cells [4]
  LD50: 1000 µM

## C[n+]1ccc(-c2cc[n+](C)cc2)cc1 [Paraquat]
U87 cells [1]; 24 hrs
  blebbing of treated cells: no blebbing apparent
U87 cells [1]; 24 hrs, listed as paraquat
  blebbing of treated cells: no evidence of blebbing
U87 cells [2]
  ddTUNEL: approximate concentration of the probe in the cells: 37.2 µM
U87 cells [3]
  Fpg-ddTUNEL: approximate concentration of the probe in the cells: 6.3 µM
U87 cells [4]
  LD50: 300 µM
U87 cells [6]
  share of γ-H2AX found in the cytosol: 65%

## O=NN(CCCl)C(=O)NCCCl [Carmustine, N,N′-bis(2-chloroethyl)-N-nitroso-urea]
U87 cells [1]
  number of 3′-T-OH overhang ends / overhanging cuts: ~350 per million base pairs
  number of blunt-ended breaks: approximately 900 per million base pairs
U87 cells [1]; 24 hrs, Example 2
  change in blunt-ended breaks: massive increases
  increase in levels of overhangs: more than an order of magnitude
U87 cells [1]; 24 hrs
  blebbing of treated cells: formation of small blebs
U87 cells [2]
  ddTUNEL: approximate concentration of the probe in the cells: 22.8 µM
U87 cells [2]; U87 cells, vs control
  increase in ddTUNEL: six-fold
U87 cells [3]
  Fpg-ddTUNEL: approximate concentration of the probe in the cells: 5.2 µM
U87 cells [3]; U87 cells
  effect of NaBH4 reduction on the Fpg-ddTUNEL signal / oxo-base levels: unaltered by reduction
U87 cells [3]; U87 cells, vs control
  increase in Fpg-ddTUNEL: six-fold
U87 cells [4]
  LD50: 2.5 µM
U87 cells [6]
  difference in cytosolic γ-H2A.X levels, carmustine-treated vs temozolomide-treated cells: 10 fold
  transfer of γ-H2A.X into the cytosol: transfer of γ-H2A.X into the cytosol
